A short description of data set [1]: Drug accumulation in human NCI-H292 cells at 3 to 10 uM incubated for 3 hrs by LC-MS analysis relative to azithromycin. Format: ADME, cell-based. The settings on record: nci-h292, 3 h.
The nature of data set [2]: Chromatographic hydrophobicity, logD of the compound at pH 7.4 by fast-gradient RP-HPLC method. The settings on record: buffer. Format: physicochemical.

On to `CC[C@H]1OC(=O)[C@H](C)[C@@H](O[C@H]2C[C@@](C)(OC)[C@@H](O)[C@H](C)O2)[C@H](C)[C@@H](O[C@@H]2O[C@H](C)C[C@H](N(C)CCCNC(C)=O)[C@H]2O)[C@](C)(O)C[C@@H](C)CN(C)[C@H](C)[C@@H](O)[C@]1(C)O`, for which, in data set [1], the Drug uptake is recorded as 5%. Besides, the chromatographic logD in data set [2] was determined as 2.06.
For `CCCCC(=O)NCCCO[C@@H]1[C@@H](C)N(C)C[C@H](C)C[C@@](C)(O)[C@H](O[C@@H]2O[C@H](C)C[C@H](N(C)C)[C@H]2O)[C@@H](C)[C@H](O[C@H]2C[C@@](C)(OC)[C@@H](O)[C@H](C)O2)[C@@H](C)C(=O)O[C@H](CC)[C@@]1(C)O` the same measures were 756% and 3.74.
Taken in the same sequence, the figures for `CC[C@H]1OC(=O)[C@H](C)[C@@H](O[C@H]2C[C@@](C)(OC)[C@@H](O)[C@H](C)O2)[C@H](C)[C@@H](O[C@@H]2O[C@H](C)C[C@H](N(C)C)[C@H]2O)[C@](C)(O)C[C@@H](C)CN(CCCNC(=O)C2CCC2)[C@H](C)[C@@H](O)[C@]1(C)O` were 0% and 2.31.
For `CCCCCCCC(=O)NCCCN1C[C@H](C)C[C@@](C)(O)[C@H](O)[C@@H](C)[C@H](O)[C@@H](C)C(=O)O[C@H](CC)[C@@](C)(O)[C@H](O)[C@H]1C` the same measures were 63% and 3.49.
Compound `CCCCCCCC(=O)NCCCO[C@@H]1[C@@H](C)N(C)C[C@H](C)C[C@@](C)(O)[C@H](O[C@@H]2O[C@H](C)C[C@H](N(C)C)[C@H]2O)[C@@H](C)[C@H](O[C@H]2C[C@@](C)(OC)[C@@H](O)[C@H](C)O2)[C@@H](C)C(=O)O[C@H](CC)[C@@]1(C)O` showed a Drug uptake in data set [1] of 756%. This compound had a chromatographic logD in data set [2] of 5.18.
For `CCC(=O)NCCCO[C@H]1[C@H](C)O[C@@H](O[C@H]2[C@H](C)[C@@H](O[C@@H]3O[C@H](C)C[C@H](N(C)C)[C@H]3O)[C@](C)(O)C[C@@H](C)CN(C)[C@H](C)[C@@H](O)[C@](C)(O)[C@@H](CC)OC(=O)[C@@H]2C)C[C@@]1(C)OC`, the Drug uptake in data set [1] is recorded as 15%. In data set [2], this compound displayed a chromatographic logD of 2.54.
Taken in the same sequence, the figures for `CC[C@H]1OC(=O)[C@H](C)[C@@H](O[C@H]2C[C@@](C)(OC)[C@@H](O)[C@H](C)O2)[C@H](C)[C@@H](O[C@@H]2O[C@H](C)C[C@H](N(C)C)[C@H]2O)[C@](C)(O)C[C@@H](C)CN(CCCNC(C)=O)[C@H](C)[C@@H](O)[C@]1(C)O` were 1% and 2.06.
`CCC(=O)NCCCO[C@@H]1[C@@H](C)N(C)C[C@H](C)C[C@@](C)(O)[C@H](O[C@@H]2O[C@H](C)C[C@H](N(C)C)[C@H]2O)[C@@H](C)[C@H](O[C@H]2C[C@@](C)(OC)[C@@H](O)[C@H](C)O2)[C@@H](C)C(=O)O[C@H](CC)[C@@]1(C)O` registered a Drug uptake in data set [1] of 41%. This compound also returned a chromatographic logD in data set [2] of 2.74.
For `CCCCCCCC(=O)NCCCO[C@H]1[C@H](C)O[C@@H](O[C@H]2[C@H](C)[C@@H](O[C@@H]3O[C@H](C)C[C@H](N(C)C)[C@H]3O)[C@](C)(OC)C[C@@H](C)C(=O)[C@H](C)[C@@H](O)[C@](C)(O)[C@@H](CC)OC(=O)[C@@H]2C)C[C@@]1(C)OC` the same measures were 281% and 6.02.
Taken in the same sequence, the figures for `CC[C@H]1OC(=O)[C@H](C)[C@@H](O[C@H]2C[C@@](C)(OC)[C@@H](O)[C@H](C)O2)[C@H](C)[C@@H](O[C@@H]2O[C@H](C)C[C@H](N(C)C)[C@H]2O)[C@](C)(O)C[C@@H](C)CN(C)[C@H](C)[C@@H](OCCCNC(C)=O)[C@]1(C)O` were 7% and 2.41.
Taken in the same sequence, the figures for `CC[C@H]1OC(=O)[C@H](C)[C@@H](O[C@H]2C[C@@](C)(OC)[C@@H](O)[C@H](C)O2)[C@H](C)[C@@H](O[C@@H]2O[C@H](C)C[C@H](N(C)C)[C@H]2O)[C@](C)(OC)C[C@@H](C)/C(=N\O)[C@H](C)[C@@H](O)[C@]1(C)O` were 48% and 3.61.
The compound `CC[C@H]1OC(=O)[C@H](C)[C@@H](O[C@H]2C[C@@](C)(OC)[C@@H](O)[C@H](C)O2)[C@H](C)[C@@H](O[C@@H]2O[C@H](C)C[C@H](N(C)C)[C@H]2OCCCNC(=O)COC)[C@](C)(O)C[C@@H](C)CN(C)[C@H](C)[C@@H](O)[C@]1(C)O` showed a Drug uptake in data set [1] of 22%. For the same compound, in data set [2], the chromatographic logD was determined as 2.54.
Taken in the same sequence, the figures for `CC[C@H]1OC(=O)[C@H](C)[C@@H](O[C@H]2C[C@@](C)(OC)[C@@H](OC(=O)CN(CC)CC)[C@H](C)O2)[C@H](C)[C@@H](O[C@@H]2O[C@H](C)C[C@H](N(C)C)[C@H]2O)[C@](C)(OC)C[C@@H](C)C(=O)N[C@H](C)[C@@H](O)[C@]1(C)O` were 121% and 3.86.
For `CC[C@H]1OC(=O)[C@H](C)[C@@H](O[C@H]2C[C@@](C)(OC)[C@@H](OCCCNC(=O)C3CCC3)[C@H](C)O2)[C@H](C)[C@@H](O[C@@H]2O[C@H](C)C[C@H](N(C)C)[C@H]2O)[C@](C)(O)C[C@@H](C)CN(C)[C@H](C)[C@@H](O)[C@]1(C)O` the same measures were 51% and 2.62.
Taken in the same sequence, the figures for `CCCCCCCC(=O)NCCCO[C@H]1[C@H](C)O[C@@H](O[C@H]2[C@H](C)[C@@H](O[C@@H]3O[C@H](C)C[C@H](N(C)C)[C@H]3O)[C@](C)(O)C[C@@H](C)CN(C)[C@H](C)[C@@H](O)[C@](C)(O)[C@@H](CC)OC(=O)[C@@H]2C)C[C@@]1(C)OC` were 357% and 4.1.
In data set [1], `CCCCCCCC(=O)NCCCO[C@@H]1[C@@H](C)C(=O)[C@H](C)C[C@@](C)(OC)[C@H](O[C@@H]2O[C@H](C)C[C@H](N(C)C)[C@H]2O)[C@@H](C)[C@H](O[C@H]2C[C@@](C)(OC)[C@@H](O)[C@H](C)O2)[C@@H](C)C(=O)O[C@H](CC)[C@@]1(C)O` displayed a Drug uptake of 575%. Further, the chromatographic logD in data set [2] amounted to 5.07.
For `CC[C@H]1OC(=O)[C@H](C)[C@@H](OCCCNC(=O)COC)[C@H](C)[C@@H](O[C@@H]2O[C@H](C)C[C@H](N(C)C)[C@H]2O)[C@](C)(O)C[C@@H](C)CN(C)[C@H](C)[C@@H](O)[C@]1(C)O` the same measures were 14% and 1.4.
For `CCC(=O)NCCCO[C@H]1[C@H](C)[C@@H](O[C@@H]2O[C@H](C)C[C@H](N(C)C)[C@H]2O)[C@](C)(O)C[C@@H](C)CN(C)[C@H](C)[C@@H](O)[C@](C)(O)[C@@H](CC)OC(=O)[C@@H]1C` the same measures were 22% and 1.6.
In data set [1], `CC[C@H]1OC(=O)[C@H](C)[C@@H](O[C@H]2C[C@@](C)(OC)[C@@H](OCCCNC(C)=O)[C@H](C)O2)[C@H](C)[C@@H](O[C@@H]2O[C@H](C)C[C@H](N(C)C)[C@H]2O)[C@](C)(O)C[C@@H](C)CN(C)[C@H](C)[C@@H](O)[C@]1(C)O` yielded a Drug uptake of 6%. The chromatographic logD in data set [2] turned out to be 2.06.
For `CC[C@H]1OC(=O)[C@H](C)[C@@H](O[C@H]2C[C@@](C)(OC)[C@@H](O)[C@H](C)O2)[C@H](C)[C@@H](O[C@@H]2O[C@H](C)C[C@H](N(C)C)[C@H]2O)[C@](C)(O)C[C@@H](C)CN(C)[C@H](C)[C@@H](OCCCNC(=O)COC)[C@]1(C)O` the same measures were 26% and 2.58.
For `CC[C@H]1OC(=O)[C@H](C)[C@@H](O[C@H]2C[C@@](C)(OC)[C@@H](O)[C@H](C)O2)[C@H](C)[C@@H](O[C@@H]2O[C@H](C)C[C@H](N(C)C)[C@H]2O)[C@](C)(O)C[C@@H](C)CN(C)[C@H](C)[C@@H](OCCCNC(=O)C2CCC2)[C@]1(C)O` the same measures were 138% and 3.5.

For the origin of these results see ChEMBL document CHEMBL4265872, “Around the macrolide - Impact of 3D structure of macrocycles on lipophilicity and cellular accumulation” (Eur J Med Chem, 2017).
